This is an account of results in patent US20150291610A1, “C20' Urea Derivatives of Vinca Alkaloids” (THE SCRIPPS RESEARCH INSTITUTE, priority 2012, published 2015).

pIC50: −log10 of the molar value.

One data set deals with LNCaP-FGC (Prostate). The data set is described as follows: 15-cell line panel: LNCaP-FGC. The class given is cell-based, human. The settings on record: independent laboratory panel; read-out: IC50 (nM) LNCaP-FGC.
For data set [1], the system named is human tumor 15-cell line panel. Kind of data set: Human tumor 15-cell line panel, whole panel (averages, ranges). The class given is cell-based.
Another data set relates to NCI-H520 (Lung). Kind of data set: 15-cell line panel: NCI-H520. The settings on record: independent laboratory panel. The data set is classed as cell-based, human.
In data set [2] the test system is LS174T (Colon, high levels of MUC2 mRNA). The data set is described as follows: 15-cell line panel: LS174T. The class given is cell-based, human. Particulars: independent laboratory panel.
Data set [3] has as its system AU565 (Breast, overexpression of her2/neu). The data set is described as follows: 15-cell line panel, independent laboratory: AU565. The class given is cell-based, human.
The subject of data set [4] is L1210 (mouse lymphocytic leukemia) cells. The data set is described as follows: Cell growth inhibition assay, L1210. The data set is classed as cell-based. Particulars: L1210 murine leukemia cell line; avg of 4-16 determinations.
For data set [5], the system named is HCC1143 (Breast, triple negative). The data set is described as follows: 15-cell line panel: HCC1143. The data set is classed as cell-based, human. Particulars: independent laboratory panel.
The test system of data set [6] is ZR-75-1 (Breast, overexpression of her2). Kind of data set: 15-cell line panel: ZR-75-1. The class given is cell-based, human. Particulars: independent laboratory panel.
Data set [7] concerns HCT116 (human colorectal carcinoma) cells. Kind of data set: Cell growth inhibition assay, HCT116. The data set is classed as cell-based. The settings on record: HCT116 human colon cancer cell line; avg of 4-16 determinations; read-out: IC50 (nM) HCT116.
The subject of data set [8] is KPL4 (Breast, overexpression of erbB2). The data set is described as follows: 15-cell line panel: KPL4. The data set is classed as cell-based, human. Particulars: independent laboratory panel.
Data set [9] deals with SW403 (Colon, KRAS^G12V mutation). The data set is described as follows: 15-cell line panel: SW403. The data set is classed as cell-based, human. Particulars: independent laboratory panel.
For data set [10], the system named is MCF-7 (Breast, overexpression of her2/neu). Kind of data set: 15-cell line panel: MCF-7. The data set is classed as cell-based, human. Particulars: independent laboratory panel; > = highest concentration tested.
In a further data set the target is T1, porcine tubulin (Sus scrofa, UniProt P02550+P02554).
T1 construct: purified porcine tubulin; purchased Cytoskeleton, Inc
T1 sequence (P02550 whole entry): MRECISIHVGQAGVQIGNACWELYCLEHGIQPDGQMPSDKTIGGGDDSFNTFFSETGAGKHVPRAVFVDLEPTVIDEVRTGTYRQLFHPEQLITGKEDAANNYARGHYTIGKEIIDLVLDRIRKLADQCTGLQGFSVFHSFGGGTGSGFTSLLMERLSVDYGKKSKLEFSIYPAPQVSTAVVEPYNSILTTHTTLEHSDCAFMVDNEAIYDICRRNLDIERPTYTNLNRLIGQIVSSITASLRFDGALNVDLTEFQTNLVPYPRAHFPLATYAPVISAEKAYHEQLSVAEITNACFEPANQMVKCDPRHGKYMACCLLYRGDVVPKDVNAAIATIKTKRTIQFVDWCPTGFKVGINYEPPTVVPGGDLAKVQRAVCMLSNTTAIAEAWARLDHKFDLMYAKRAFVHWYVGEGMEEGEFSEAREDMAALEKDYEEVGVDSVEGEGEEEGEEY
T1 sequence (P02554 whole entry): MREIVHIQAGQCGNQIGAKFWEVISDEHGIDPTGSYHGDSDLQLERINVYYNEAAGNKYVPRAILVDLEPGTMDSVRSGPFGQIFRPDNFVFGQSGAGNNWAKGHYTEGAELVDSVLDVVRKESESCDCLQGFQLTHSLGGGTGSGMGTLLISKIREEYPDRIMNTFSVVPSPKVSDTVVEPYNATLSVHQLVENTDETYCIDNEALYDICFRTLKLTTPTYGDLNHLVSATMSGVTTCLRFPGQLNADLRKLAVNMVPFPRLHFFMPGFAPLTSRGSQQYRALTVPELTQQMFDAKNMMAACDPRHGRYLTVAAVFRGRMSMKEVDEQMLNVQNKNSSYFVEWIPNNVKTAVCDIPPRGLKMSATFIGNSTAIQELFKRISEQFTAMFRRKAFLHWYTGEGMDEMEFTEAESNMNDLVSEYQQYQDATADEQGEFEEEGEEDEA
The class given is binding. The text has this: [Owellen et al., Biochem. Pharmacol. 1977 26:1213-1219.] […] Millipore Steriflip® filter units were used to wash the filter paper with buffer under mild suction.

In data set [11] the test system is HCC70 (Breast, overexpression of p53). The data set is described as follows: 15-cell line panel: HCC70. The class given is cell-based, human. The settings on record: independent laboratory panel.
The subject of data set [12] is MDA-MB-468 (Breast, triple negative, amplified EGFR). The data set is described as follows: 15-cell line panel: MDA-MB-468. Particulars: independent laboratory panel. The data set is classed as cell-based, human.
Data set [13] deals with T47D (Breast, mutant p53). Kind of data set: 15-cell line panel: T47D. The class given is cell-based, human. Particulars: independent laboratory panel.
The subject of data set [14] is PA-1 (Ovary, overexpression of AIB1). Kind of data set: 15-cell line panel: PA-1. The data set is classed as cell-based, human. Particulars: independent laboratory panel.
Data set [15] deals with HCT116/VM46 (Colon, vinblastine resistant). Kind of data set: 15-cell line panel: HCT116/VM46. Particulars: independent laboratory panel. The class given is cell-based, human.
For data set [16], the system named is HCT116/VM46 (vinblastine-resistant strain of HCT116, Pgp over-expression) cells. The data set is described as follows: Cell growth inhibition assay, HCT116/VM46. Particulars: read-out: IC50 (nM) HCT116/VM46; resistant human colon cancer cell line, Pgp over-expression.
The next data set deals with HCT116 (Colon). Kind of data set: 15-cell line panel: HCT116. The data set is classed as cell-based, human. The settings on record: independent laboratory panel.

Regarding `CC[C@]1(NC(=O)N2Cc3ccccc3C2)C[C@@H]2CN(CCc3c([nH]c4ccccc34)[C@@](C(=O)OC)(c3cc4c(cc3OC)N(C)[C@H]3[C@@](O)(C(=O)OC)[C@H](OC(C)=O)[C@]5(CC)C=CCN6CC[C@]43[C@@H]65)C2)C1` [Compound 58], the IC50 in the data set with LNCaP-FGC (Prostate) is 0.24 nM; with NCI-H520 (Lung) it was 0.1 nM; in data set [2], 0.45 nM; in data set [3], 0.11 nM; in data set [4], 0.51 nM; in data set [5], 0.09 nM. Moreover, the IC50 is 0.45 nM in data set [6]; 0.6 nM in data set [7]; 0.04 nM in data set [8]; 0.45 nM in data set [9]; more than 12.5 nM in data set [10]; 0.04 nM in [11]. In addition, the IC50 was 0.39 nM in data set [12]; 0.41 nM in data set [13]; 0.11 nM in data set [14]; 3.5 nM in [15] (> = highest concentration tested); 7.5 nM in data set [16]; 0.16 nM with HCT116 (Colon). Besides, the “average enhancement over the activity of vinblastine in panel” value in data set [1] (average over panel) is 30 fold. Also, the “average IC50 value in human tumor cell line panel” value in data set [1] (comparative average) is 0.2 nM. Further, the pIC50 (usually the IC50 on a negative log10 scale, so that one unit is a factor of ten) in [1] (range over cell lines, read-out: IC50 values across the panel) was 9.35 to 10.40. Besides, the “tubulin binding affinity compared with vinblastine” value at porcine tubulin (in words) is recorded as “higher affinity than vinblastine”. Further, on porcine tubulin (ligand vs [^3H]VBL (1:1), normalized to VLB + [^3H]VLB = 50.0%), the “% ^3H-vinblastine remaining bound” value amounted to 41.2%. The “differential of HCT116/VM46 from sensitive HCT116 in panel” value in data set [15] was 20 fold.
